# Results published in US9504729B2, “Antiangiogenic small molecules and methods of use” (The United States of America, as represented by the …, priority 2009, dated 2016).
# System: angiogenesis genes in dermal microvascular endothelial cells
# Assay: Real time RT-PCR of angiogenesis gene expression during endothelial tube formation
# Format: cell-based
# Details: 1 μM SM, 24 hours
compound,measurement,setting,value
COc1ccc(CC2C(=O)NC(C)C(=O)N(C)C3Cc4ccc(cc4)Oc4cc(ccc4O)CC(C(=O)NC(C)C(=O)NC(C)C(=O)N2C)N(C)C3=O)cc1 (centres unmarked) [compound 259969],Log2 fold-change of gene expression: 1839,,−4.2
same,Log2 fold-change of gene expression: 4247,,0.2
same,Log2 fold-change of gene expression: 5569,,4.6
same,Log2 fold-change of gene expression: 8131,,−0.2
same,Log2 fold-change of gene expression: 9569,,−1.7
same,Log2 fold-change of gene expression: 10988,,0.3
same,Log2 fold-change of gene expression: 23001,,0.3
same,Log2 fold-change of gene expression: 55332,,0.1
same,Log2 fold-change of gene expression: 57722,,−0.1
same,Log2 fold-change of gene expression: 58488,,0.4
same,Log2 fold-change of gene expression: 90780,,−2.4
same,Log2 fold-change of gene expression: 134265,,−0.6
same,Log2 fold-change of gene expression: AKT1,,−1.4
same,Log2 fold-change of gene expression: ANGPT1,,1.4
same,Log2 fold-change of gene expression: ANGPT2,,0.9
same,Log2 fold-change of gene expression: ANGPTL3,,3.6
same,Log2 fold-change of gene expression: ANGPTL4,,1.5
same,Log2 fold-change of gene expression: ANPEP,,0.2
same,Log2 fold-change of gene expression: ANTXR1,,−1.4
same,Log2 fold-change of gene expression: APOE,,0.8
same,Log2 fold-change of gene expression: ARHGEF1,,−0.8
same,Log2 fold-change of gene expression: Acvrl1,,−1.9
same,Log2 fold-change of gene expression: Adcy4,,−0.6
same,Log2 fold-change of gene expression: BAL1,,0.4
same,Log2 fold-change of gene expression: BMP1,,−0.6
same,Log2 fold-change of gene expression: C1orf54,,−6.1
same,Log2 fold-change of gene expression: CALD1,,−0.6
same,Log2 fold-change of gene expression: CCL2,,3.6
same,Log2 fold-change of gene expression: CCL11,,0.0
same,Log2 fold-change of gene expression: CD248,,0.6
same,Log2 fold-change of gene expression: CDH5,,−1.6
same,Log2 fold-change of gene expression: CENTD3,,−1.0
same,Log2 fold-change of gene expression: CLIC1,,1.8
same,Log2 fold-change of gene expression: COL4A3,,3.2
same,Log2 fold-change of gene expression: COL18A1,,1.9
same,Log2 fold-change of gene expression: COMT,,−1.7
same,Log2 fold-change of gene expression: CST4,,0.4
same,Log2 fold-change of gene expression: CTTNBP2NL,,−1.0
same,Log2 fold-change of gene expression: CXCL3,,11.6
same,Log2 fold-change of gene expression: CXCL5,,10.2
same,Log2 fold-change of gene expression: CXCL6,,1.0
same,Log2 fold-change of gene expression: CXCL9,,0.5
same,Log2 fold-change of gene expression: CXCL10,,2.8
same,Log2 fold-change of gene expression: Calcr1,,−2.9
same,Log2 fold-change of gene expression: Caskin2,,−2.3
same,Log2 fold-change of gene expression: Ccbp2,,5.6
same,Log2 fold-change of gene expression: Cldn5,,0.4
same,Log2 fold-change of gene expression: DGKG,,6.1
same,Log2 fold-change of gene expression: DKK3,,−2.7
same,Log2 fold-change of gene expression: DLL4,,−4.1
same,Log2 fold-change of gene expression: DUT,,−1.9
same,Log2 fold-change of gene expression: EFNA1,,7.8
same,Log2 fold-change of gene expression: EFNA3,,0.3
same,Log2 fold-change of gene expression: EFNB2,,−6.6
same,Log2 fold-change of gene expression: EGF,,0.2
same,Log2 fold-change of gene expression: ENG,,−0.7
same,Log2 fold-change of gene expression: EPHB4,,0.3
same,Log2 fold-change of gene expression: EREG,,9.3
same,Log2 fold-change of gene expression: ESAM1,,−1.6
same,Log2 fold-change of gene expression: EXTL3,,0.4
same,Log2 fold-change of gene expression: Egf17,,−2.3
same,Log2 fold-change of gene expression: Ehd4,,−0.7
same,Log2 fold-change of gene expression: Entpd1,,−5.6
same,Log2 fold-change of gene expression: Epas1,,1.5
same,Log2 fold-change of gene expression: EphB1,,0.6
same,Log2 fold-change of gene expression: Erg,,−3.9
same,Log2 fold-change of gene expression: FGF1,,5.7
same,Log2 fold-change of gene expression: FGF2,,2.5
same,Log2 fold-change of gene expression: FGFR3,,1.2
same,Log2 fold-change of gene expression: FIGF,,0.2
same,Log2 fold-change of gene expression: FLT1,,−0.7
same,Log2 fold-change of gene expression: Fgd5,,−0.8
same,Log2 fold-change of gene expression: GPCR124,,−4.6
same,Log2 fold-change of gene expression: GRRP1,,0.6
same,Log2 fold-change of gene expression: Grp116,,−5.5
same,Log2 fold-change of gene expression: HAND2,,1.4
same,Log2 fold-change of gene expression: HGF,,1.5
same,Log2 fold-change of gene expression: HIF1A,,0.7
same,Log2 fold-change of gene expression: HPSE,,2.6
same,Log2 fold-change of gene expression: Hspa12b,,−10.2
same,Log2 fold-change of gene expression: ID1,,1.5
same,Log2 fold-change of gene expression: ID3,,2.5
same,Log2 fold-change of gene expression: IFNA1,,1.1
same,Log2 fold-change of gene expression: IFNB1,,1.6
same,Log2 fold-change of gene expression: IFNG,,6.0
same,Log2 fold-change of gene expression: IGF1,,−2.6
same,Log2 fold-change of gene expression: IL1B,,1.3
same,Log2 fold-change of gene expression: IL6,,9.4
same,Log2 fold-change of gene expression: IL8,,11.3
same,Log2 fold-change of gene expression: ITGAV,,−0.9
same,Log2 fold-change of gene expression: ITGB3,,−2.9
same,Log2 fold-change of gene expression: Icam1,,2.8
same,Log2 fold-change of gene expression: Icam2,,7.5
same,Log2 fold-change of gene expression: JAG1,,1.7
same,Log2 fold-change of gene expression: KDR,,−0.5
same,Log2 fold-change of gene expression: Kifc1,,−4.8
same,Log2 fold-change of gene expression: LAMAS5,,−0.8
same,Log2 fold-change of gene expression: LECT1,,−8.0
same,Log2 fold-change of gene expression: LEP,,0.8
same,Log2 fold-change of gene expression: Lasts2,,1.5
same,Log2 fold-change of gene expression: Lrrk1,,0.3
same,Log2 fold-change of gene expression: MDK,,−1.0
same,Log2 fold-change of gene expression: MMP2,,−0.1
same,Log2 fold-change of gene expression: MMP9,,4.3
same,Log2 fold-change of gene expression: MMP11,,0.1
same,Log2 fold-change of gene expression: MRC2,,−0.6
same,Log2 fold-change of gene expression: Mmm2,,−7.5
same,Log2 fold-change of gene expression: Myo1b,,−3.0
same,Log2 fold-change of gene expression: NID1,,−3.6
same,Log2 fold-change of gene expression: NM023516,,0.9
same,Log2 fold-change of gene expression: NRP1,,−2.6
same,Log2 fold-change of gene expression: NRP2,,−3.5
same,Log2 fold-change of gene expression: Notch4,,−0.3
same,Log2 fold-change of gene expression: Npr3,,2.7
same,Log2 fold-change of gene expression: PALD,,−1.3
same,Log2 fold-change of gene expression: PDCD2,,−1.7
same,Log2 fold-change of gene expression: PDGFA,,1.1
same,Log2 fold-change of gene expression: PECAM1,,−3.0
same,Log2 fold-change of gene expression: PGF,,−7.2
same,Log2 fold-change of gene expression: PLAU,,3.8
same,Log2 fold-change of gene expression: PLG,,−1.0
same,Log2 fold-change of gene expression: PNMT,,−0.1
same,Log2 fold-change of gene expression: PROK2,,2.2
same,Log2 fold-change of gene expression: PTGS1,,2.9
same,Log2 fold-change of gene expression: PTPRCAP,,0.9
same,Log2 fold-change of gene expression: Pltp,,1.4
same,Log2 fold-change of gene expression: Ptprb,,−0.1
same,Log2 fold-change of gene expression: Ptprm,,1.7
same,Log2 fold-change of gene expression: RAMP2,,−5.9
same,Log2 fold-change of gene expression: RASD2,,0.5
same,Log2 fold-change of gene expression: Rasip1,,−1.1
same,Log2 fold-change of gene expression: S1PR1,,−0.3
same,Log2 fold-change of gene expression: SERPINF1,,6.5
same,Log2 fold-change of gene expression: SPHK1,,3.2
same,Log2 fold-change of gene expression: STAB1,,0.5
same,Log2 fold-change of gene expression: Sdc4,,4.0
same,Log2 fold-change of gene expression: Sdpr,,0.9
same,Log2 fold-change of gene expression: Slc43a3,,0.2
same,Log2 fold-change of gene expression: Slco2a1,,−2.4
same,Log2 fold-change of gene expression: TEK,,1.6
same,Log2 fold-change of gene expression: TGFA,,8.7
same,Log2 fold-change of gene expression: TGFB1,,0.3
same,Log2 fold-change of gene expression: TGFB2,,1.3
same,Log2 fold-change of gene expression: TGFBR1,,1.1
same,Log2 fold-change of gene expression: THBS1,,−0.1
same,Log2 fold-change of gene expression: THBS2,,2.6
same,Log2 fold-change of gene expression: THY1,,−3.0
same,Log2 fold-change of gene expression: TIMP1,,2.5
same,Log2 fold-change of gene expression: TIMP2,,0.0
same,Log2 fold-change of gene expression: TIMP3,,−0.6
same,Log2 fold-change of gene expression: TNF,,9.3
same,Log2 fold-change of gene expression: TNS1,,−0.3
same,Log2 fold-change of gene expression: TNS3,,−8.0
same,Log2 fold-change of gene expression: TRA2B,,0.6
same,Log2 fold-change of gene expression: TYMP,,0.1
same,Log2 fold-change of gene expression: VEGFA,,5.7
same,Log2 fold-change of gene expression: VEGFC,,1.9
same,Log2 fold-change of gene expression: VGLL4,,1.3
same,Log2 fold-change of gene expression: Vwf,,−5.4
same,Log2 fold-change of gene expression: copa,,−2.1
same,Log2 fold-change of gene expression: itbp4,,−1.7
same,Log2 fold-change of gene expression: ralb,,0.7
same,Log2 fold-change of gene expression: stard9,,0.0
same,Log2 fold-change of gene expression: B2M,1st listing (r49),1.2
same,Log2 fold-change of gene expression: HPRT1,1st listing (r50),0.6
same,Log2 fold-change of gene expression: RPL13A,1st listing (r51),1.2
same,Log2 fold-change of gene expression: GADPH,1st listing (r52),−1.0
same,Log2 fold-change of gene expression: ACTB,1st listing (r53),−2.5
same,Log2 fold-change of gene expression: PLXDC1,1st listing (r74),2.3
same,Log2 fold-change of gene expression: TNFAIP2,1st listing (r91),4.6
same,Log2 fold-change of gene expression: Robo4,1st listing (r95),−4.1
same,Log2 fold-change of gene expression: 151516,1st listing (r134),0.5
same,Log2 fold-change of gene expression: TNFAIP2,2nd listing (r92),4.7
same,Log2 fold-change of gene expression: B2M,2nd listing (r97),1.5
same,Log2 fold-change of gene expression: HPRT1,2nd listing (r98),−0.5
same,Log2 fold-change of gene expression: RPL13A,2nd listing (r99),0.7
same,Log2 fold-change of gene expression: GADPH,2nd listing (r100),0.0
same,Log2 fold-change of gene expression: ACTB,2nd listing (r101),−2.2
same,Log2 fold-change of gene expression: PLXDC1,2nd listing (r104),−2.4
same,Log2 fold-change of gene expression: 151516,2nd listing (r139),0.5
same,Log2 fold-change of gene expression: Robo4,2nd listing (r188),0.3
same,Log2 fold-change of gene expression: B2M,3rd listing (r145),0.5
same,Log2 fold-change of gene expression: HPRT1,3rd listing (r146),0.8
same,Log2 fold-change of gene expression: RPL13A,3rd listing (r147),0.0
same,Log2 fold-change of gene expression: GADPH,3rd listing (r148),−1.7
same,Log2 fold-change of gene expression: ACTB,3rd listing (r149),−2.2
same,Log2 fold-change of gene expression: B2M,4th listing (r193),0.8
same,Log2 fold-change of gene expression: HPRT1,4th listing (r194),0.5
same,Log2 fold-change of gene expression: RPL13A,4th listing (r195),0.0
same,Log2 fold-change of gene expression: GADPH,4th listing (r196),−2.1
same,Log2 fold-change of gene expression: ACTB,4th listing (r197),0.4
